The source of these data is ChEMBL document CHEMBL3046616, “Design, synthesis, and biological activities of milbemycin analogues” (2011).

Holding throughout (format): functional
In assay [1] the test system is Aphis fabae. The assay is described as follows: Insecticidal activity against Aphis fabae (black bean aphid) infested soybean tender shoots measured 48 hr post compound dose by modified FAO dip method. More on the design: concentration or dose not given beside the values.
Assay [2] relates to Mythimna separata. Briefly: Insecticidal activity against Mythimna separata (Oriental armyworm) fourth-instar larvae reared compound pre-treated corn leaves assessed as insect mortality at 200 mg/L measured 2 days post compound dose.
Assay [3] relates to Tetranychus cinnabarinus. The assay is described as follows: Insecticidal activity against Tetranychus cinnabarinus (carmine spider mite) […] assessed as larvicidal activity at 0.006 mg/L after 48 hr.
Assay [4] concerns Mythimna separata. Briefly: Insecticidal activity against Mythimna separata (Oriental armyworm) fourth-instar larvae reared compound pre-treated corn leaves assessed as insect mortality at 0.625 mg/L measured 2 days post compound dose.
Assay [5] relates to Mythimna separata. Briefly: Insecticidal activity against Mythimna separata (Oriental armyworm) fourth-instar larvae reared compound pre-treated corn leaves assessed as insect mortality at 2.5 mg/L measured 2 days post compound dose.
The test system of assay [6] is Mythimna separata. The assay is described as follows: Insecticidal activity against Mythimna separata (Oriental armyworm) fourth-instar larvae reared compound pre-treated corn leaves assessed as insect mortality at 10 mg/L measured 2 days post compound dose.

For `CCC(C)[C@H]1O[C@]2(CC[C@@H]1C)C[C@@H]1C[C@@H](C/C=C(\C)[C@@H](O[C@H]3C[C@H](OC)[C@@H](OC(=O)c4ccccc4OC)[C@H](C)O3)[C@@H](C)/C=C/C=C3\CO[C@@H]4[C@H](O)C(C)=C[C@@H](C(=O)O1)[C@]34O)O2` (stereo not given in full), the mortality (in general, the share of the test organisms that died) in assay [1] turned out to be 100%. Further, the mortality at 200 µg/mL in assay [2] stood at 98.2%. Moreover, the mortality at 0.006 µg/mL in assay [3] is 16.4%.
The like results for `CCC(C)[C@H]1O[C@]2(CC[C@@H]1C)C[C@@H]1C[C@@H](C/C=C(\C)[C@@H](OC(=O)Nc3ccc(Cl)cc3)[C@@H](C)/C=C/C=C3\CO[C@@H]4[C@H](O)C(C)=C[C@@H](C(=O)O1)[C@]34O)O2` (stereo not given in full) were, in that order, 67.8%, 88.5% and 30.8%.
The like results for `CCC(C)[C@H]1O[C@]2(CC[C@@H]1C)C[C@@H]1C[C@@H](C/C=C(\C)[C@@H](O[C@H]3C[C@H](OC)[C@@H](OC(=O)c4ccc(Cl)cc4)[C@H](C)O3)[C@@H](C)/C=C/C=C3\CO[C@@H]4/C(=N/OC)C(C)=C[C@@H](C(=O)O1)[C@]34O)O2` (stereo not given in full) were, in that order, 8.7%, 0% and 6.2%.
In the same order, the values of `CCC(C)[C@H]1O[C@]2(CC[C@@H]1C)C[C@@H]1C[C@@H](C/C=C(\C)[C@@H](OC(=O)c3ccccc3)[C@@H](C)/C=C/C=C3\CO[C@@H]4/C(=N/OC)C(C)=C[C@@H](C(=O)O1)[C@]34O)O2` (stereo not given in full) are 7.2%, 0% and 9.2%.
Take `CCC(C)[C@H]1O[C@]2(CC[C@@H]1C)C[C@@H]1C[C@@H](C/C=C(\C)[C@@H](O[C@H]3C[C@H](OC)[C@@H](OC(=O)c4ccc(Cl)cc4)[C@H](C)O3)[C@@H](C)/C=C/C=C3\CO[C@@H]4[C@H](O)C(C)=C[C@@H](C(=O)O1)[C@]34O)O2` (stereo not given in full): the mortality in assay [1] was found to be 100%. In assay [4], the mortality at 0.625 µg/mL was determined as 0%. Moreover, the mortality at 2.5 µg/mL in assay [5] stood at 16.7%. Moreover, the mortality at 10 µg/mL in assay [6] is 93.9%. For the same compound, in assay [3], the mortality at 0.006 µg/mL stood at 32.3%.
`CCC(C)[C@H]1O[C@]2(CC[C@@H]1C)C[C@@H]1C[C@@H](C/C=C(\C)[C@@H](O[C@H]3C[C@H](OC)[C@@H](OC(=O)/C(=N\OC)c4ccccc4)[C@H](C)O3)[C@@H](C)/C=C/C=C3\CO[C@@H]4/C(=N/OC)C(C)=C[C@@H](C(=O)O1)[C@]34O)O2` (stereo not given in full): the mortality in assay [1] came to 15.9%. Also, the mortality at 200 µg/mL in assay [2] worked out at 0%. For the same compound, in assay [3], the mortality at 0.006 µg/mL was 36.6%.
In the same order, the values of `C/C=C\C(=O)O[C@@H]1/C(C)=C/C[C@@H]2C[C@@H](C[C@]3(CC[C@H](C)[C@@H](C(C)CC)O3)O2)OC(=O)[C@@H]2C=C(C)[C@@H](O)[C@H]3OC/C(=C\C=C\[C@@H]1C)[C@]32O` (stereo not given in full) are 73.5%, 76.8% and 40.9%.
In assay [1], `CCC(C)[C@H]1O[C@]2(CC[C@@H]1C)C[C@@H]1C[C@@H](C/C=C(\C)[C@@H](OC(=O)c3ccc(F)cc3)[C@@H](C)/C=C/C=C3\CO[C@@H]4[C@H](O)C(C)=C[C@@H](C(=O)O1)[C@]34O)O2` (stereo not given in full) yielded a mortality of 56.8%. Also, the mortality at 200 µg/mL in assay [2] came to 83.3%. Also, the mortality at 0.006 µg/mL in assay [3] stood at 47.4%.
Compound `CCC(C)[C@H]1O[C@]2(CC[C@@H]1C)C[C@@H]1C[C@@H](C/C=C(\C)[C@@H](OC(=O)c3ccc(Cl)cc3)[C@@H](C)/C=C/C=C3\CO[C@@H]4[C@H](O)C(C)=C[C@@H](C(=O)O1)[C@]34O)O2` (stereo not given in full) displayed a mortality in assay [1] of 87.9%. Also, the mortality at 0.625 µg/mL in assay [4] came to 0%. The mortality at 2.5 µg/mL in assay [5] is 24.9%. Also, the mortality at 10 µg/mL in assay [6] came out at 100%. Further, the mortality at 0.006 µg/mL in assay [3] was found to be 26.9%.
For `CCC(C)[C@H]1O[C@]2(CC[C@@H]1C)C[C@@H]1C[C@@H](C/C=C(\C)[C@@H](O[C@H]3C[C@H](OC)[C@@H](OC(=O)c4ccc(F)cc4)[C@H](C)O3)[C@@H](C)/C=C/C=C3\CO[C@@H]4/C(=N/OC)C(C)=C[C@@H](C(=O)O1)[C@]34O)O2` (stereo not given in full), in assay [1], the mortality worked out at 11.2%. For the same compound, in assay [2], the mortality at 200 µg/mL worked out at 0%. In assay [3], the mortality at 0.006 µg/mL worked out at 11.1%.
As for `CCC(C)[C@H]1O[C@]2(CC[C@@H]1C)C[C@@H]1C[C@@H](C/C=C(\C)[C@@H](OC(=O)c3ccccc3)[C@@H](C)/C=C/C=C3\CO[C@@H]4[C@H](O)C(C)=C[C@@H](C(=O)O1)[C@]34O)O2` (stereo not given in full), the mortality in assay [1] stood at 76.5%. Also, the mortality at 200 µg/mL in assay [2] is 88.6%. The mortality at 0.006 µg/mL in assay [3] worked out at 31.1%.
In the same order, the values of `CCC(C)[C@H]1O[C@]2(CC[C@@H]1C)C[C@@H]1C[C@@H](C/C=C(\C)[C@@H](OC(=O)c3ccc(OC)cc3)[C@@H](C)/C=C/C=C3\CO[C@@H]4[C@H](O)C(C)=C[C@@H](C(=O)O1)[C@]34O)O2` (stereo not given in full) are 75.2%, 100% and 34.8%.
In assay [1], `CCC(C)[C@H]1O[C@]2(CC[C@@H]1C)C[C@@H]1C[C@@H](C/C=C(\C)[C@@H](OC(=O)/C(=N\OC)c3ccccc3)[C@@H](C)/C=C/C=C3\CO[C@@H]4/C(=N/OC)C(C)=C[C@@H](C(=O)O1)[C@]34O)O2` (stereo not given in full) showed a mortality of 6.5%. Also, the mortality at 200 µg/mL in assay [2] came to 0%. Moreover, in assay [3], the mortality at 0.006 µg/mL came to 49%.
In the same order, the values of `CCC(C)[C@H]1O[C@]2(CC[C@@H]1C)C[C@@H]1C[C@@H](C/C=C(\C)[C@@H](OC(=O)Cc3ccccc3)[C@@H](C)/C=C/C=C3\CO[C@@H]4[C@H](O)C(C)=C[C@@H](C(=O)O1)[C@]34O)O2` (stereo not given in full) are 62.7%, 89.9% and 44.9%.
The like results for `CCC(C)[C@H]1O[C@]2(CC[C@@H]1C)C[C@@H]1C[C@@H](C/C=C(\C)[C@@H](OC(=O)c3ccc(Cl)cc3)[C@@H](C)/C=C/C=C3\CO[C@@H]4/C(=N/OC)C(C)=C[C@@H](C(=O)O1)[C@]34O)O2` (stereo not given in full) were, in that order, 0%, 0% and 10.2%.
The like results for `C/C=C/C(=O)O[C@H]1[C@H](C)O[C@@H](O[C@@H]2/C(C)=C/C[C@@H]3C[C@@H](C[C@]4(CC[C@H](C)[C@@H](C(C)CC)O4)O3)OC(=O)[C@@H]3C=C(C)[C@@H](O)[C@H]4OC/C(=C\C=C\[C@@H]2C)[C@]43O)C[C@@H]1OC` (stereo not given in full) were, in that order, 100%, 88.9% and 25.1%.
`CCC(C)[C@H]1O[C@]2(CC[C@@H]1C)C[C@@H]1C[C@@H](C/C=C(\C)[C@@H](O[C@H]3C[C@H](OC)[C@@H](OC(=O)Nc4ccc(Cl)cc4)[C@H](C)O3)[C@@H](C)/C=C/C=C3\CO[C@@H]4[C@H](O)C(C)=C[C@@H](C(=O)O1)[C@]34O)O2` (stereo not given in full): the mortality in assay [1] came out at 90.3%. In assay [2], the mortality at 200 µg/mL is 77.9%. Moreover, the mortality at 0.006 µg/mL in assay [3] turned out to be 29.8%.
In the same order, the values of `CCC(C)[C@H]1O[C@]2(CC[C@@H]1C)C[C@@H]1C[C@@H](C/C=C(\C)[C@@H](O[C@H]3C[C@H](OC)[C@@H](OC(=O)Nc4ccccc4)[C@H](C)O3)[C@@H](C)/C=C/C=C3\CO[C@@H]4[C@H](O)C(C)=C[C@@H](C(=O)O1)[C@]34O)O2` (stereo not given in full) are 97.6%, 100% and 45.2%.
`CCC(C)[C@H]1O[C@]2(CC[C@@H]1C)C[C@@H]1C[C@@H](C/C=C(\C)[C@@H](OC(=O)C3C(C=C(Cl)Cl)C3(C)C)[C@@H](C)/C=C/C=C3\CO[C@@H]4[C@H](O)C(C)=C[C@@H](C(=O)O1)[C@]34O)O2` (stereo not given in full) had a mortality in assay [1] of 87.9%. The mortality at 0.625 µg/mL in assay [4] was found to be 3.3%. The mortality at 2.5 µg/mL in assay [5] turned out to be 6.4%. In addition, the mortality at 10 µg/mL in assay [6] is 6.7%. In assay [3], the mortality at 0.006 µg/mL was 31.7%.
The compound `CCC(C)[C@H]1O[C@]2(CC[C@@H]1C)C[C@@H]1C[C@@H](C/C=C(\C)[C@@H](OC(=O)Nc3ccccc3)[C@@H](C)/C=C/C=C3\CO[C@@H]4[C@H](O)C(C)=C[C@@H](C(=O)O1)[C@]34O)O2` (stereo not given in full) registered a mortality in assay [1] of 96.8%. Moreover, the mortality at 200 µg/mL in assay [2] worked out at 100%. In addition, the mortality at 0.006 µg/mL in assay [3] stood at 55.2%.
In the case of `CCC(C)[C@H]1O[C@]2(CC[C@@H]1C)C[C@@H]1C[C@@H](C/C=C(\C)[C@@H](OC(=O)c3ccc(C)cc3)[C@@H](C)/C=C/C=C3\CO[C@@H]4[C@H](O)C(C)=C[C@@H](C(=O)O1)[C@]34O)O2` (stereo not given in full), the mortality in assay [1] was found to be 56.4%. Further, the mortality at 200 µg/mL in assay [2] is 87.6%. The mortality at 0.006 µg/mL in assay [3] stood at 27.1%.
Take `CCC(C)[C@H]1O[C@]2(CC[C@@H]1C)C[C@@H]1C[C@@H](C/C=C(\C)[C@@H](OC(=O)c3ccc(OC)cc3)[C@@H](C)/C=C/C=C3\CO[C@@H]4/C(=N/OC)C(C)=C[C@@H](C(=O)O1)[C@]34O)O2` (stereo not given in full): the mortality in assay [1] is recorded as 6.3%. In assay [2], the mortality at 200 µg/mL came to 0%. For the same compound, in assay [3], the mortality at 0.006 µg/mL amounted to 5.9%.
`CCC(C)[C@H]1O[C@]2(CC[C@@H]1C)C[C@@H]1C[C@@H](C/C=C(\C)[C@@H](OC(=O)c3ccccc3OC)[C@@H](C)/C=C/C=C3\CO[C@@H]4[C@H](O)C(C)=C[C@@H](C(=O)O1)[C@]34O)O2` (stereo not given in full): the mortality in assay [1] was 68.6%. The mortality at 0.625 µg/mL in assay [4] amounted to 19.7%. Moreover, the mortality at 2.5 µg/mL in assay [5] came out at 77.3%. Further, the mortality at 10 µg/mL in assay [6] worked out at 97%. Further, the mortality at 0.006 µg/mL in assay [3] was determined as 19.5%.
In assay [1], `CCC(C)[C@H]1O[C@]2(CC[C@@H]1C)C[C@@H]1C[C@@H](C/C=C(\C)[C@@H](OC(=O)C3C(C=C(Br)Br)C3(C)C)[C@@H](C)/C=C/C=C3\CO[C@@H]4[C@H](O)C(C)=C[C@@H](C(=O)O1)[C@]34O)O2` (stereo not given in full) displayed a mortality of 72.9%. The mortality at 200 µg/mL in assay [2] came out at 100%. Further, the mortality at 0.006 µg/mL in assay [3] worked out at 32.1%.
